According to patent publication US11952384B2, “Anti-tumor compound and preparation method and use thereof” (DUALITY BIOLOGICS (SUZHOU) CO., LTD., priority 2020, dated 2024):

Legend:
[1] = test system: Colo205 cells; test: Inhibition of in vitro proliferation of tumor cells by compounds (CTG, 6 days); type: cell-based; conditions: Homo sapiens, COLO 205, 144 h, Table 4, Test Example 2.4, small molecule fragments, 6 days of culture
Procedure: To test the inhibitory activity of the pharmaceutical compounds on the in vitro proliferation of NCI-N87 and Colo205 tumor cells. The cells were treated with compounds at different concentrations in vitro, and after 6 days of culture, the proliferation of cells was detected using CTG (CellTiter-Glo® Luminescent Cell Viability Assay, Promega, Cat. No. G7558) reagents, and the in vitro activity of the compounds was evaluated according to the IC50 value. • 1. Culturing of cells: NCI-N87/Colo205 cells were cultured in RPMI-1640 medium containing 10% FBS. • 2. Preparation of cells: NCI-N87/Colo205 cells in logarithmic phase were taken, washed with PBS once, and digested with 2-3 mL of trypsin for 2-3 min. After the cells were digested completely, 10-15 mL of cell culture was added to elute the digested cells. The eluate was centrifuged at 1000 rpm for 5 min, and the supernatant was discarded. […] Sample adding: the prepared samples to be detected at different concentrations were added to the culture plate, and two duplicate wells were set for each sample. […] Plate reading: the 96-well cell culture plate was taken out, placed in a microplate reader, and measured for the chemiluminescence using the microplate reader. Data analysis: data were processed and analyzed using Microsoft Excel and Graphpad Prism 5.

[2] = target: T1, BCRP (Homo sapiens, UniProt Q9UNQ0); test: Study on transporter substrates in Caco-2 cell model; conditions: Caco-2; for efflux ratio at 2 h / recovery at 2 h: human; for efflux ratio at 2 h: Caco-2, Efflux ratio
T1 sequence (Q9UNQ0 1-655): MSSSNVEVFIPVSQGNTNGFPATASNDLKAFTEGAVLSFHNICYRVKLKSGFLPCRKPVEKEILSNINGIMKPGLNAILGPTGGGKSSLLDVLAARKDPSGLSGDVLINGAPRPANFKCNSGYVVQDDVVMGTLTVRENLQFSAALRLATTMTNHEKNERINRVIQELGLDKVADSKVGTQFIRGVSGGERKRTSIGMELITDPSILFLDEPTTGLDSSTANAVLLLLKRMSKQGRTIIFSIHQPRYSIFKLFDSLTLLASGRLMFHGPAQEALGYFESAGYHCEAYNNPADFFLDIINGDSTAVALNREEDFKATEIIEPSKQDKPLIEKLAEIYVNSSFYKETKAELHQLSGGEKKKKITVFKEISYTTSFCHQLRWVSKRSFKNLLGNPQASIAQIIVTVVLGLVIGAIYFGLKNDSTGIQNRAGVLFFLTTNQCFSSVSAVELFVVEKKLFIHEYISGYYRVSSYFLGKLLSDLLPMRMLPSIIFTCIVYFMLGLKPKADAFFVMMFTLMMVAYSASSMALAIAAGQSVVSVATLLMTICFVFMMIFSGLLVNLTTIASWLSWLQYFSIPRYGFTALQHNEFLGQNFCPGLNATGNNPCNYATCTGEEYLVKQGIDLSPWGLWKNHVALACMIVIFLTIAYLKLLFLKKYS

[3] = target: T1, BCRP; test: in vitro; conditions: for Papp A→B at 2 h: Caco-2, Papp (A-B) (10^−6, cm/s); for Papp B→A at 2 h: Caco-2, Papp (B-A) (10^−6, cm/s)
[4] = target: T2, P-gp (Homo sapiens, UniProt P08183); test: Study on transporter substrates in Caco-2 cell model; type: in vitro ADME; conditions: Caco-2
T2 construct: endogenous in cells; host or cells: Caco-2
T2 sequence (P08183 whole entry): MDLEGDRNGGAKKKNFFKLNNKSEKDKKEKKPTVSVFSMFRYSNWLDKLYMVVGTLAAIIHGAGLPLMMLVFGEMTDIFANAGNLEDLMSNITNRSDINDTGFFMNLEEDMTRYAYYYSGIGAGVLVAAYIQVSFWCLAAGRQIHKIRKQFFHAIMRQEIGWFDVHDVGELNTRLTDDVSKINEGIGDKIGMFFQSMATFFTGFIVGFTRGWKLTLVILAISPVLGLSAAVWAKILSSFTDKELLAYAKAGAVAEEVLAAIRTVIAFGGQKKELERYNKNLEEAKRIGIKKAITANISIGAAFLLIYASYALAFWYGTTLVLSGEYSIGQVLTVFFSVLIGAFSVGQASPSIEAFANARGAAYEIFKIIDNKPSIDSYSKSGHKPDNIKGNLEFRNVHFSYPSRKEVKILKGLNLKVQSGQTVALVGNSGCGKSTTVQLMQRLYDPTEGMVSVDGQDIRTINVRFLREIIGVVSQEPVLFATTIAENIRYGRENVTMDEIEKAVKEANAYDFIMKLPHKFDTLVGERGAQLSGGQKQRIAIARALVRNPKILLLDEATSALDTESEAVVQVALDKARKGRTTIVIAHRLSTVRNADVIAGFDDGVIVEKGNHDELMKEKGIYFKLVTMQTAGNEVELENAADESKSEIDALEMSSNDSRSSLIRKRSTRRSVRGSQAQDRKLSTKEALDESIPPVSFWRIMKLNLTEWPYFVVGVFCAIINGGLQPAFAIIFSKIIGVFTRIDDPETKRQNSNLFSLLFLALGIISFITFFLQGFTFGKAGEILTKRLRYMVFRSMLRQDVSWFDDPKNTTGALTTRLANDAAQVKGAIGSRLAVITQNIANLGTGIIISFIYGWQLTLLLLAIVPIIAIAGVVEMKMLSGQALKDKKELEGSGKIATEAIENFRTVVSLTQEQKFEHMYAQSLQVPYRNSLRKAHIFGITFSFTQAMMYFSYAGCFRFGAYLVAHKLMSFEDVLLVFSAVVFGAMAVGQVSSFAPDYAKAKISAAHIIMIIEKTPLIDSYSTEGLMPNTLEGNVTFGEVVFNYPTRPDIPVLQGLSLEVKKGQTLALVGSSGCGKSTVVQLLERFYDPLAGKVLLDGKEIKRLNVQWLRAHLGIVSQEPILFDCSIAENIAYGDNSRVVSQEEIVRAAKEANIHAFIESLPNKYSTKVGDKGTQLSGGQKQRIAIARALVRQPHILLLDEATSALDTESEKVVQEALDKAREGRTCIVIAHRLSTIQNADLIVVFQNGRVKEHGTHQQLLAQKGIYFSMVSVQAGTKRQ
Procedure: The resistance of each well was recorded. […] 2. […] The plate was vortexed for 10 min. The samples were centrifuged. […] HBSS was added to the basolateral compartment. […] 3. Data Analysis
Data were calculated using Microsoft Excel.

[5] = target: T1, BCRP; conditions: Caco-2
[6] = Caco-2, Recovery rate (%) AP-BL, KO143 −
[7] = Caco-2, Recovery rate (%) BL-AP, KO143 −
[8] = Caco-2, with KO143 (concentration not stated), Recovery rate (%) AP-BL, KO143 +
[9] = Caco-2, with KO143 (concentration not stated), Recovery rate (%) BL-AP, KO143 +

| SMILES | IC50 [1] [nM] | efflux ratio at 2 h ([2]; KO143 −) | recovery at 2 h [2, 6] [%] | recovery at 2 h [2, 7] [%] | recovery at 2 h [2, 8] [%] | recovery at 2 h [2, 9] [%] | Papp A→B at 2 h [3] [×10⁻⁶ cm/s] | Papp B→A at 2 h [3] [×10⁻⁶ cm/s] | P-gp substrate [4] | Papp (A-B) (10^−6, cm/s) [5] | Papp (B-A) (10^−6, cm/s) [5] | Recovery rate (%) AP-BL ([2]; KO143 −) [%] | Recovery rate (%) AP-BL ([2]; KO143 +) [%] | Recovery rate (%) BL-AP ([2]; KO143 +) [%] | Efflux ratio ([2]; KO143 −) | Recovery rate (%) BL-AP ([2]; KO143 −) [%] |
| --- | --- | --- | --- | --- | --- | --- | --- | --- | --- | --- | --- | --- | --- | --- | --- | --- |
| CC[C@@]1(O)C(=O)OCc2c1cc1n(c2=O)Cc2c-1nc1cc(F)c(C)c3c1c2[C@@H](NC(=O)C[C@@H](C)O)CC3 [P-III-20, (R)—N-((1S,9S)-9-ethyl-5-fluoro-9-hydroxy-4-methyl-10,13-dioxo-2,3,9,10,13,15-hexahydro-1H,12H-benzo[de]pyrano[3′,4′: 6,7]indolizino[1,2-b]quinolin-1-yl)-3-hydroxybutanamide] | 20 | – | – | – | – | – | – | – | – | – | – | – | – | – | – | – |
| CC[C@@]1(O)C(=O)OCc2c1cc1n(c2=O)Cc2c-1nc1cc(F)c(C)c3c1c2[C@@H](NC(=O)[C@H]1C[C@@H](O)C1)CC3 [P-II-3, (1s,3R)-N-((1S,9S)-9-ethyl-5-fluoro-9-hydroxy-4-methyl-10,13-dioxo-2,3,9,10,13,15-hexahydro-1H,12H-benzo[de]pyrano[3′,4′:6,7]indolizino[1,2-b]quinolin-1-yl)-3-hydroxycyclobutane-1-carboxamide] | – | 28.7 | 80.9 | 77.5 | 76.9 | 76.5 | 0.17 | 4.83 | neither transporter P-gp substrates nor transporter BCRP substrates | 0.20 10^−6, cm/s | 5.52 10^−6, cm/s | – | – | – | – | – |
| CC[C@@]1(O)C(=O)OCc2c1cc1n(c2=O)Cc2c-1nc1cc(F)c(C)c3c1c2[C@@H](NC(=O)C1CCC(O)CC1)CC3 (single isomer, unassigned) [P-II-1] | – | 28.7 | – | 77.5 | 76.9 | 76.5 | – | – | neither transporter P-gp substrates nor transporter BCRP substrates | 0.20 10^−6, cm/s | 5.52 10^−6, cm/s | 80.87 | – | – | – | – |
| CC[C@@]1(O)C(=O)OCc2c1cc1n(c2=O)Cc2c-1nc1cc(F)c(C)c3c1c2[C@@H](NC(=O)C1CCC(O)CC1)CC3 (single isomer, unassigned) [P-II-2] | – | – | – | – | – | – | – | – | neither transporter P-gp substrates nor transporter BCRP substrates | 0.07 10^−6, cm/s | 1.70 10^−6, cm/s | 59.32 | 62.42 | 62.86 | 30.08 | 58.51 |
| CC[C@@]1(O)C(=O)OCc2c1cc1n(c2=O)Cc2c-1nc1cc(F)c(C)c3c1c2[C@@H](NC(=O)[C@H]1C[C@H](O)C1)CC3 [P-II-4, (1r,3S)-N-((1S,9S)-9-ethyl-5-fluoro-9-hydroxy-4-methyl-10,13-dioxo-2,3,9,10,13,15-hexahydro-1H,12H-benzo[de]pyrano[3′,4′:6,7]indolizino[1,2-b]quinolin-1-yl)-3-hydroxycyclobutane-1-carboxamide] | – | 36.1 | 63.8 | 64 | 65 | 63 | 0.05 | 1.72 | neither transporter P-gp substrates nor transporter BCRP substrates | 0.06 10^−6, cm/s | 1.65 10^−6, cm/s | – | – | – | – | – |
